Data set [1] concerns Molt 4 (T-lymphoid). Kind of data set: Anti-proliferation in Molt 4 cells. Format: cell-based, human. Particulars: read-out: Anti-Proliferation EC50.
Procedure: (§1) Compounds were tested using human and canine lymphoblasts (stimulated with a T-cell mitogen phytohaemagglutinin (PHA) or a B-cell mitogen pokeweed mitogen (PWM)), two T-lymphoid cell lines derived from patients with acute lymphocytic leukemia (CEM and Molt-4), two myeloid cell lines derived from patients with acute myelogenous leukemia (KG-1 and HL-60), two B-lymphoid cell lines derived from Burkitt's lymphoma (Daudi and Raji), a B-lymphoid cell line from non-Hodgkin's lymphoma (RL), a T-lymphoid cell line from cutaneous T-lymphoma (PM-1), and a monocytic cell line from histiocytic lymphoma (U937). Lymphoblasts (150,000 cells per microtiter well) and leukemia/lymphoma cell lines (30,000 cells per well) were incubated with 5-fold serial dilutions of compounds for 3 days.
The subject of data set [2] is U937 (Monocytic). Kind of data set: Anti-proliferation in U937 cells. Particulars: read-out: Anti-Proliferation EC50. Format: cell-based, human.
For data set [3], the system named is lymphoblasts and leukemia/lymphoma cell lines. The experiment in a line: Anti-proliferation, EC50 range over the cell panel. Format: cell-based. Particulars: range over a variety of lymphoblasts and leukemia/lymphoma cell lines. As to the method:
A variety of compounds that are used for treatment of hematologic malignancies were also tested, including a DNA polymerase inhibitor (ara-C), DNA polymerase/ribonucleotide reductase inhibitors (cladribine, clofarabine, fludarabine, gemcitabine), an adenosine deaminase inhibitor (deoxycoformycin), a DNA methylation inhibitor (decitabine), a […] (doxorubicin), and a mitosis inhibitor (vincristine). All compounds, with the exception of doxorubicin and vincristine, are nucleoside analogs; ara-C, gemcitabine, and decitabine are cytosine analogs and the rest are adenosine analogs. cpr-PMEDAP and PMEG can be considered adenosine and guanosine analogs, respectively. Compounds were tested using human and canine lymphoblasts (stimulated with a T-cell mitogen phytohaemagglutinin (PHA) or a B-cell mitogen pokeweed mitogen (PWM)), two T-lymphoid cell lines derived from patients with acute lymphocytic leukemia (CEM and Molt-4), two myeloid cell lines derived from patients with acute myelogenous leukemia (KG-1 and HL-60), two B-lymphoid cell lines derived from Burkitt's lymphoma (Daudi and Raji), a B-lymphoid cell line from non-Hodgkin's lymphoma (RL), a T-lymphoid cell line from cutaneous T-lymphoma (PM-1), and a monocytic cell line from histiocytic lymphoma (U937).
Lymphoblasts (150,000 cells per microtiter well) and leukemia/lymphoma cell lines (30,000 cells per well) were incubated with 5-fold serial dilutions of compounds for 3 days. BrdU assay was performed as follows: Lymphoblasts were incubated with 5-fold serial dilutions of compounds in microtiter plates (150,000 cells per well) for 3 days. On Day 3, cells were labeled with 10 μM BrdU for 3 hrs and the amount of BrdU incorporated into cellular DNA was quantified by Enzyme-Linked Immunosorbent Assay (ELISA). Alternatively, cells were incubated with 1 mg/mL XTT reagent (sodium 3,3′-[1[(phenylamino) carbonyl]-3,4-tetrazolium]-bis(4-methoxy-6-nitro) benzene sulfonic acid hydrate) and 1% PMS (phenazine methosulfate) for 2 hrs, and color change (mitochondrial dehydrogenase reduces yellow-colored XTT to orange-colored formazan salt) was quantified. […] Assays were repeated 2-20 times, until the standard error of the mean (SEM) became smaller than 50% of the mean value.

The test system of data set [4] is KG-1 (Myeloid). Kind of data set: Anti-proliferation in KG-1 cells. In kind it is cell-based, human. Particulars: read-out: Anti-Proliferation EC50.
Procedure: as §1
Data set [5] concerns HL-60 (Myeloid). Kind of data set: Anti-proliferation in HL-60 cells. In kind it is cell-based, human. Particulars: read-out: Anti-Proliferation EC50.
Procedure: as §1
Data set [6] relates to PHA-blast (human T-cells). Kind of data set: Anti-proliferation in human PHA-lymphoblasts (BrdU/XTT). In kind it is cell-based. Particulars: read-out: Anti-Proliferation EC50.
The conditions of data set [7]: dog, in vivo.
Procedure: • Dogs were administered various prodrugs of cpr-PMEDAP as 0.2 mg/kg 30 minute IV infusions. […] Alanine was the L isomer. • Blood was collected into potassium EDTA and separated by centrifugation. Primary blood mononuclear cells (PBMCs) were collected using CPT tubes (sodium citrate). • For analysis, plasma samples were precipitated by addition of 100 μL acetonitrile containing internal standards (D4AP and TDF) to 100 μL of plasma for prodrug analysis. After protein precipitation by centrifugation, 100 μL was transferred into another tube to be dried and then reconstituted in 100 μL water with 0.2% formic acid. An aliquot of 20 μL was injected onto the column for LC/MS/MS analysis. Analysis was done using a 150×2.0 mm, 4 μm Synergi Fusion-RP 80A column (Phenomenex) and a multistage linear gradient from 0.5 to 99% acetonitrile in the presence of 0.2% formic acid at 0.25 mL/min. Analytes were detected using a Sciex API-4000 mass spectrometer using electrospray ionization in positive MRM mode. […] Separate aliquots of cells from each time point resuspended in 100% serum were used to establish the cell quantities in each sample. Cell samples were normalized to 15×10^6 cells per sample. […] 20 μL was injected for LC/MS/MS analysis using a 50×2.0 mm, 4 μm Synergi Hydro-RP 80A column (Phenomenex) and a multistage linear gradient from 0 to 95% acetonitrile in the presence of 0.2% formic acid at 1.0 mL/min. Analytes were detected using a Sciex API-4000 mass spectrometer using electrospray ionization in positive MRM mode. • After drying, samples for dephosphorylation were treated with 1 U of calf intestinal phosphatase (alkaline phosphotase, Sigma) for 2 h in manufacturer provided buffer. Samples were then adjusted to 60% acetonitrile dried and resuspended in 60% acetonitrile containing internal standards (TDF and D4AP) and analyzed for cpr-PMEDAP as described for direct PBMC analysis.
Data set [8] concerns CEM (T-lymphoid). Kind of data set: Anti-proliferation in CEM cells. The note with it: read-out: Anti-Proliferation EC50. In kind it is cell-based, human.
Procedure: as §1
Data set [9] concerns PM-1 (T-lymphoid). The experiment in a line: Anti-proliferation in PM-1 cells. Format: cell-based, human. Particulars: read-out: Anti-Proliferation EC50.
Procedure: as §1
Data set [10] has as its system Daudi (B-lymphoid). Kind of data set: Anti-proliferation in Daudi cells. In kind it is cell-based, human. The note with it: 3 days incubation.
Procedure: as §1
For data set [11], the system named is Raji (B-lymphoid). Kind of data set: Anti-proliferation in Raji cells. Format: cell-based, human. Particulars: 3 days incubation.
Procedure: as §1
Data set [12] deals with RL (B-lymphoid). Kind of data set: Anti-proliferation in RL cells. In kind it is cell-based. Particulars: Homo sapiens, 72 h, 3 days incubation.
Procedure: as §1
Data set [13] concerns PHA-blast (canine T-cells). The experiment in a line: Anti-proliferation in canine PHA-lymphoblasts (BrdU/XTT). Format: cell-based. Particulars: Canis lupus familiaris, T-cell, 72 h, 3 days incubation.
The subject of data set [14] is PWM-blast (canine B-cells). Kind of data set: Anti-proliferation in canine PWM-lymphoblasts (BrdU/XTT). In kind it is cell-based. Particulars: Canis lupus familiaris, B-cell, 72 h, 3 days incubation. For orientation: Tetrazolium assays rely on reduction of a dye to a coloured formazan, in cell work by metabolically active cells.
Data set [15] concerns PWM-blast (human B-cells). The experiment in a line: Anti-proliferation in human PWM-lymphoblasts (BrdU/XTT). Particulars: B-cell, 72 h, 3 days incubation. Format: cell-based.
Setting [16] is: Homo sapiens, 72 h, Molt 4 (T-lymphoid), 3 days incubation.
Setting [17] is: Homo sapiens, U-937, 72 h, U937 (Monocytic), 3 days incubation.
Where [18] appears, read: Homo sapiens, 72 h, KG-1 (Myeloid), 3 days incubation.
Setting [19] is: Homo sapiens, 72 h, HL-60 (Myeloid), 3 days incubation.
[20] abbreviates: Homo sapiens, 72 h, CEM (T-lymphoid), 3 days incubation.
[21] abbreviates: Homo sapiens, 72 h, PM-1 (T-lymphoid), 3 days incubation.
[22] abbreviates: T-cell, 72 h, PHA-blast (human T-cells), 3 days incubation.

Like-named read-outs stand apart in the source and are kept apart here.

For the compound `OC[C@H]1O[C@@H](n2cnc3c2NC=NC[C@H]3O)C[C@@H]1O` [Deoxy coformycin], the EC50 in data set [1] (setting [16]) is greater than 200000 nM; in data set [2] (setting [17]), greater than 200000 nM; in data set [3], greater than 200000 nM; in data set [4] (setting [18]), greater than 200000 nM; in data set [5] (setting [19]), greater than 200000 nM; in data set [6] (Homo sapiens, T-cell, 72 h) it was greater than 200000 nM.

On to `C[C@H](NP(=O)(COCCn1cnc2c(NC3CC3)nc(N)nc21)Oc1ccccc1)C(=O)OC(C)(C)C` (stereo partly drawn) [MonoAlatBu], for which the “PBMC to Plasma ratio” value in [7] came to 12.

With `CC(C)OC(=O)[C@H](C)NP(=O)(COCCn1cnc2c(NC3CC3)nc(N)nc21)Oc1ccccc1` (stereo partly drawn) [MonoAlaiPr], in data set [7], the “PBMC to Plasma ratio” value amounted to 17.

As to `Nc1nc2c(ncn2CCOCP(=O)(O)O)c(=O)[nH]1` [PMEG, 9-(2-phosphonylmethoxyethyl)guanine], the EC50 in [1] (Molt 4 (T-lymphoid), 3 days incubation) worked out at 1740 nM; in data set [2] (U937 (Monocytic), 3 days incubation), 4010 nM; in data set [8] (CEM (T-lymphoid), 3 days incubation) it was 5200 nM; in data set [9] (PM-1 (T-lymphoid), 3 days incubation) it was 4020 nM; in data set [4] (KG-1 (Myeloid), 3 days incubation) it was 2930 nM; in data set [5] (HL-60 (Myeloid), 3 days incubation), 3920 nM. Moreover, the EC50 in [10] is 994 nM; in data set [6] (PHA-blast (human T-cells), 3 days incubation), 1680 nM; in data set [11] it was 2720 nM.

As to `Nc1nc(F)nc2c1ncn2[C@@H]1O[C@H](CO)[C@@H](O)[C@@H]1O` [Fludarabine des-phosphate], the EC50 in data set [1] (setting [16]) is 1550 nM; in data set [2] (setting [17]), 300 nM; in data set [8] (setting [20]), greater than 40000 nM; in data set [9] (setting [21]), 12900 nM; in data set [4] (setting [18]) it was 4520 nM; in [5] (setting [19]), 1770 nM. Besides, the EC50 in data set [6] (Homo sapiens, T-cell, 72 h) is 1100 nM.

With `Nc1nc(Cl)nc2c1ncn2[C@H]1C[C@H](O)[C@@H](CO)O1` [Cladribine], the EC50 was 74 nM in [1] (setting [16]); 20 nM in data set [2] (setting [17]); 1170 nM in [8] (setting [20]); 40 nM in data set [9] (setting [21]); 89 nM in data set [4] (setting [18]); 50 nM in data set [5] (setting [19]). For the same compound, the EC50 worked out at 525 nM in data set [10] (Homo sapiens, 72 h); 4 nM in [12]; 296 nM in [6] (Homo sapiens, T-cell, 72 h); 12 nM in [11] (Homo sapiens, 72 h).

As to `Nc1ccn([C@@H]2O[C@H](CO)[C@@H](O)C2(F)F)c(=O)n1` [Gemcitabine], the EC50 in data set [1] (setting [16]) was 8.5 nM; in [2] (setting [17]), 31 nM; in data set [8] (setting [20]), 21 nM; in data set [3], 3.4 to 18 nM; in data set [9] (setting [21]) it was 16 nM; in data set [4] (setting [18]), 5.7 nM. Also, the EC50 came to 8.6 nM in data set [5] (setting [19]); 6 nM in data set [10] (Homo sapiens, 72 h); 18 nM in [12]; 9.6 nM in [6] (setting [22]); 3.4 nM in data set [11] (Homo sapiens, 72 h).

In the case of `Nc1ccn([C@@H]2O[C@H](CO)[C@@H](O)[C@@H]2O)c(=O)n1` [Ara-C, Cytarabine], the EC50 in [1] (setting [16]) is 23 nM; in data set [2] (setting [17]), 38 nM; in data set [8] (setting [20]) it was 143 nM; in data set [3] it was 23 to 1820 nM; in [9] (setting [21]), 194 nM; in [4] (setting [18]) it was 56 nM. Besides, the EC50 was 212 nM in data set [5] (setting [19]); 209 nM in data set [10] (Homo sapiens, 72 h); 610 nM in data set [12]; 1820 nM in data set [6] (Homo sapiens, T-cell, 72 h); 23 nM in [11] (Homo sapiens, 72 h).

Consider `COc1cccc2c1C(=O)c1c(O)c3c(c(O)c1C2=O)C[C@@](O)(C(=O)CO)C[C@@H]3O[C@H]1C[C@H](N)[C@H](O)[C@H](C)O1` [Doxorubicin], for which the EC50 in data set [1] (setting [16]) is 1.2 nM; in [2] (setting [17]) it was 13 nM; in [9] (setting [21]) it was 29.5 nM; in data set [4] (setting [18]) it was 28 nM; in data set [5] (setting [19]), 24 nM; in [10] (Homo sapiens, 72 h), 3.8 nM. The EC50 in data set [12] was determined as 25 nM; in data set [6] (Homo sapiens, T-cell, 72 h) it was 7.6 nM; in data set [11] (Homo sapiens, 72 h) it was 8.6 nM.

As for `C[C@H](NP(=O)(COCCn1cnc2c(NC3CC3)nc(N)nc21)Oc1ccccc1)C(=O)OC(C)(C)C` (single isomer, unassigned) [MonoAlatBu(A)], in data set [7], the “PBMC to Plasma ratio” value is 19.

On to `Nc1ncn([C@H]2C[C@H](O)[C@@H](CO)O2)c(=O)n1` [Decitabine], for which the EC50 in data set [1] (Homo sapiens, MOLT-4, 72 h) is 580 nM; in [2] (Homo sapiens, U-937, 72 h) it was 77 nM; in data set [8] (Homo sapiens, T-lymphoid, 72 h), 3000 nM; in data set [9] (Homo sapiens, T-lymphoid, 72 h), greater than 20000 nM; in data set [4] (Homo sapiens, KG-1, 72 h) it was 83 nM; in data set [5] (Homo sapiens, HL-60, 72 h), 3830 nM. Moreover, the EC50 in data set [6] (Homo sapiens, T-cell, 72 h) stood at 204 nM.

Turning to `CC(C)OC(=O)[C@H](C)NP(=O)(COCCn1cnc2c(NC3CC3)nc(N)nc21)N[C@@H](C)C(=O)OC(C)C` [BisAlaiPr], the “PBMC to Plasma ratio” value in data set [7] is listed as 1.2.

As to `CC[C@]1(O)C[C@H]2CN(CCc3c([nH]c4ccccc34)[C@@](C(=O)OC)(c3cc4c(cc3OC)N(C=O)[C@H]3[C@@](O)(C(=O)OC)[C@H](OC(C)=O)[C@]5(CC)C=CCN6CC[C@]43[C@@H]65)C2)C1` [Vincristine], the EC50 in [1] (setting [16]) was 0.4 nM; in data set [2] (setting [17]) it was 2.8 nM; in data set [8] (setting [20]), 2 nM; in [3], 0.6 to 5.3 nM; in data set [9] (setting [21]), 5.3 nM; in data set [13], 0.9 nM. Further, the EC50 in [4] (setting [18]) was found to be 3.2 nM; in data set [5] (setting [19]), 2 nM; in [10] (Homo sapiens, 72 h), 0.6 nM; in data set [12], 1.4 nM; in [6] (setting [22]), 2.4 nM; in data set [14], 0.9 nM. Besides, the EC50 in data set [11] (Homo sapiens, 72 h) is 2.5 nM; in data set [15], 0.9 nM.

As to `Nc1nc(N)c2ncn(CCOCP(=O)(O)O)c2n1` [PMEDAP, 9-(2-phosphonylmethoxyethyl)-2,6-diaminopurine], the EC50 in [1] (setting [16]) turned out to be 27900 nM; in [2] (setting [17]) it was 24400 nM; in data set [8] (setting [20]) it was 19900 nM; in data set [9] (setting [21]), 22700 nM; in [4] (setting [18]), 7630 nM; in data set [5] (setting [19]), 21700 nM. In addition, the EC50 in data set [10] (Homo sapiens, 72 h) came out at 14000 nM; in data set [6] (setting [22]), 8950 nM; in data set [11] (Homo sapiens, 72 h), 24900 nM.

For the compound `Nc1nc(Cl)nc2c1ncn2[C@@H]1O[C@H](CO)[C@@H](O)[C@@H]1F` [Clofarabine], the EC50 in [1] (setting [16]) was 25 nM; in data set [2] (setting [17]), 37 nM; in data set [8] (setting [20]), 418 nM; in data set [3], 25 to 418 nM; in data set [9] (setting [21]), 145 nM; in data set [13], 146 nM. Further, the EC50 in [4] (setting [18]) came out at 60 nM; in data set [5] (setting [19]) it was 73 nM; in data set [10] (Homo sapiens, 72 h) it was 221 nM; in data set [12], 49.5 nM; in data set [6] (Homo sapiens, T-cell, 72 h), 62 nM; in data set [14] it was 93 nM. For the same compound, the EC50 amounted to 19.4 nM in data set [11] (Homo sapiens, 72 h) and 126 nM in [15].

The record behind these values is patent US20090258840A1, “METHOD AND COMPOSITIONS FOR TREATING HEMATOLOGICAL MALIGNANCIES” (Gilead Sciences, Inc., priority 2006, published 2009).
